The source of these data is the supplement of paper PMC9938120.

Common to all, as to assay: drug sensitivity score (DSS3, normalised partial AUC of % inhibition dose-response) (DSS (score)); higher = more sensitive (stronger inhibition of viability); extreme values may be limits of the assay
For one assay, the system named is FMOC25_1 (patient-derived low-grade serous ovarian cancer cells). As to conditions: 72 h; library: FO4B; assay format: 2D, 384-well, CellTiter-Glo. The procedure, abridged: (§1)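 Cells were dispensed onto 384-well flat clear-bottom plates already holding compounds at five concentrations over a 10,000-fold range, using patient-derived ovarian cancer cells at passage under 10. Incubation lasted 72 h at 37 °C in 5% CO2, after which CellTiter-Glo viability data were processed in Breeze. Higher drug sensitivity scores, each a partial area under the percent-inhibition dose-response curve divided by the log of the upper asymptote, mean more sensitive cells.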
On the technique in general: Cellular ATP, detected with luciferase, serves as a proxy for viable cell number.

The subject of another assay is FMOC09 (patient-derived high-grade serous ovarian cancer cells). As to conditions: 72 h; library: FO5A; assay format: 2D, 384-well, CellTiter-Glo. Put shortly:
as §1

For a further assay, the system named is FMOC02_2 (patient-derived low-grade serous ovarian cancer cells). As to conditions: 72 h; library: FO5A; assay format: 2D, 384-well, CellTiter-Glo. Put shortly:
as §1

In another assay the test system is FMOC06 (patient-derived mucinous ovarian cancer cells). To be noted: 72 h; library: FO5A; assay format: 2D, 384-well, CellTiter-Glo. Put shortly:
as §1

The subject of the next assay is FMOC14 (patient-derived high-grade serous ovarian cancer cells). To be noted: 72 h; library: FO5A; assay format: 2D, 384-well, CellTiter-Glo. Put shortly:
as §1

The test system of the next assay is FMOC03 (patient-derived mucinous ovarian cancer cells). To be noted: 72 h; library: FO5A; assay format: 2D, 384-well, CellTiter-Glo. Put shortly: as §1
The test system of the next assay is FMOC02_3 (patient-derived low-grade serous ovarian cancer cells). As to conditions: 72 h; library: FO5A; assay format: 2D, 384-well, CellTiter-Glo. Put shortly:
as §1

The test system of the next assay is FMOC22 (patient-derived mucinous ovarian cancer cells). To be noted: 72 h; library: FO5A; assay format: 2D, 384-well, CellTiter-Glo. The procedure, abridged: as §1
Another assay relates to FMOC24 (patient-derived high-grade serous ovarian cancer cells). To be noted: 72 h; library: FO5A; assay format: 2D, 384-well, CellTiter-Glo. The procedure, abridged: as §1
For a further assay, the system named is FMOC25_2 (patient-derived low-grade serous ovarian cancer cells). To be noted: 72 h; library: FO5A; assay format: 2D, 384-well, CellTiter-Glo. Put shortly:
as §1

For the compound `CC(=O)NCC(=O)N1[C@@H]2CC[C@H]1c1ccc(Nc3ncc(C(F)(F)F)c(NC4CCC4)n3)cc12`, the drug sensitivity score in the assay on FMOC25_1 stood at 9.1.
Same read-out and setting: the figure for `CC(C)CC(=O)Nc1n[nH]c2c1CN(C(=O)C1CCN(C)CC1)C2(C)C` is 5.5; for `CCNC(=O)C[C@@H]1N=C(c2ccc(Cl)cc2)c2cc(OC)ccc2-n2c(C)nnc21` it is 3.8; for `CCc1cc(Nc2nccc(-c3c(-c4ccc(OC)c(C(=O)Nc5c(F)cccc5F)c4)nc4ccccn34)n2)c(OC)cc1N1CCC(N2CCN(S(C)(=O)=O)CC2)CC1` it is 3.9.
In the assay on FMOC25_1, `CN(c1ccccc1CNc1nc(Nc2ccc3c(c2)CC(=O)N3)ncc1C(F)(F)F)S(C)(=O)=O` yielded a drug sensitivity score of 7.
In the assay on FMOC25_1, `CN1CCC(COc2cnc(-c3cccc(Cn4nc(-c5cccc(C#N)c5)ccc4=O)c3)nc2)CC1` showed a drug sensitivity score of 0.
The same measure, in the same setting: the value for `COCC(=O)NC/C=C/c1ccc2ncnc(Nc3ccc(Oc4ccc(C)nc4)c(C)c3)c2c1` was 3.2; that for `COc1ccc(-c2cc3c(C)nc(N)nc3n([C@H]3CC[C@H](OCCO)CC3)c2=O)cn1` was 23.8.
Compound `CS(=O)(=O)N1CCc2c(-c3cnc(N)nc3)nc(N3CCOCC3)nc21` returned a drug sensitivity score with FMOC25_1 of 10.5.
The same measure, in the same setting: the figure for `Cc1c(NC(=O)OC[C@@H]2COCCN2)cn2ncnc(Nc3ccc4c(cnn4Cc4cccc(F)c4)c3)c12` is 9.1; for `Cc1ccc2nc(CN(CCN(Cc3nc4ccc(C)cc4[nH]3)Cc3nc4ccc(C)cc4[nH]3)Cc3nc4ccc(C)cc4[nH]3)[nH]c2c1` it is 3.9.
In the assay on FMOC25_1, `Cn1cc(-c2ccc3nnc(C(F)(F)c4ccc5ncccc5c4)n3n2)cn1` had a drug sensitivity score of 0.
In the assay with FMOC25_1, `O=C(NOCC1CC1)c1ccc(F)c(F)c1Nc1ccc(I)cc1Cl` came in with a drug sensitivity score of 7.5.
`O=C1NC(=O)/C(=C/c2ccc3nccc(-c4ccncc4)c3c2)S1` came in with a drug sensitivity score with FMOC25_1 of 9.8.
Consider `O=c1cc(N2CCOCC2)oc2c(-c3ccccc3)cccc12`, for which the drug sensitivity score with FMOC25_1 was 9.1.
Still for that read-out and setting: the value for `OCCn1cc(-c2cnc3nnn(Cc4ccc5ncccc5c4)c3n2)cn1` was 0; that for `Oc1c2ccccc2c2c3c(cccc13)N=N2` was 4.3; that for `COc1cc2c(cc1O)CC[C@@H]1[C@@H]2CC[C@]2(C)[C@@H](O)CC[C@@H]12` [2-methoxyestradiol] was 4.1.
The same measure, in the same setting: the value for `CCCCC/C=C/C=C1/C(=O)C=C[C@@H]1C/C=C\CCCC(=O)O` [15D-PGJ2] was 0.
The same measure, in the same setting: the figure for `COc1cc(O)c2c(c1)/C=C/C[C@H](O)[C@H](O)C(=O)/C=C\C[C@H](C)OC2=O` [(5Z)-7-Oxozeaenol] is 0; for `Cc1ccccc1C(C(=O)NC1CCCCC1)N(C(=O)Cn1ccnc1C)c1cccc(F)c1` (stereo not given) [AGI-5198] it is 0.
As for `O=C(Nc1cccc(C(F)(F)F)c1)Nc1cc(S(=O)(=O)NC2CC2)ccc1-c1ccsc1` [AGI-6780], in the assay on FMOC25_1, the drug sensitivity score was found to be 0.4.
Same read-out and setting: the value for `COc1ccc2c(OCc3nnc4ccc(-c5ccccc5)nn34)ccnc2c1` [AMG-208] was 1.3; that for `Cc1csc(-c2nnc(Nc3ccc(Oc4ncccc4-c4ccnc(N)n4)cc3)c3ccccc23)c1` [AMG-900] was 0.8.
`CNC(=O)c1ccc(N2C(=S)N(c3cnc(C#N)c(C(F)(F)F)c3)C(=O)C23CCC3)cc1F` [ARN 509]: the drug sensitivity score in the assay with FMOC25_1 was found to be 0.
On to `CC(C)Oc1cc(Nc2nc(N[C@@H](C)c3ccc(F)cn3)ncc2Cl)n[nH]1` [AZ-23], for which, in the assay on FMOC25_1, the drug sensitivity score was 0.
The same measure, in the same setting: the figure for `CNC(=O)c1cccc(-c2ccc3c(N4CCOC[C@@H]4C)nc(N4CCOC[C@@H]4C)nc3n2)c1` [AZD2014] is 20.5; for `Cc1cc(C(=O)NOCCO)c(Nc2ccc(I)cc2F)n(C)c1=O` [AZD-8330] it is 22.2.
Same read-out and setting: the value for `CN(C)c1nc(N(C)C)nc(N(C)C)n1` [Altretamine] was 0; that for `CO[C@H]1/C=C\C=C(/C)C(=O)NC2=CC(=O)C(NCCN(C)C)=C(C[C@@H](C)C[C@H](OC)[C@H](O)[C@@H](C)/C=C(\C)[C@@H]1OC(N)=O)C2=O` [Alvespimycin] was 4.1.
Still for that read-out and setting: the value for `CN(C)CCN1C(=O)c2cccc3cc(N)cc(c23)C1=O` [Amonafide] was 6.8; that for `Cc1c(CN2CCN(C(=O)[C@H](C)O)CC2)sc2c(N3CCOCC3)nc(-c3cnc(N)nc3)nc12` [Apitolisib] was 18.1.
`Cn1c(CCCC(=O)O)nc2cc(N(CCCl)CCCl)ccc21` [Bendamustine] gave a drug sensitivity score with FMOC25_1 of 0.
`CS(=O)(=O)OCCCCOS(C)(=O)=O` [Busulfan] came in with a drug sensitivity score in the assay on FMOC25_1 of 0.
In the assay with FMOC25_1, `C#Cc1cccc(Nc2ncnc3cc(OC)c(OCCCCCCC(=O)NO)cc23)c1` [CUDC-101] gave a drug sensitivity score of 17.
Compound `Cc1nc(N)sc1-c1ccnc(Nc2ccc(N3CCOCC3)cc2)n1` [CYC-116] had a drug sensitivity score with FMOC25_1 of 6.4.
On the same count and under the same terms, the value for `CC[C@@]1(O)C(=O)OCc2c1cc1n(c2=O)Cc2cc3ccccc3nc2-1` [Camptothecin] was 17.
The same measure, in the same setting: the value for `O=NN(CCCl)C(=O)NCCCl` [Carmustine] was 0.4; that for `O=C(O)CCCc1ccc(N(CCCl)CCCl)cc1` [Chlorambucil] was 0; that for `O=P1(N(CCCl)CCCl)NCCCO1` (stereo not given) [Cyclophosphamide] was 0.
`CN(C)/N=N/c1[nH]cnc1C(N)=O` [Dacarbazine] displayed a drug sensitivity score with FMOC25_1 of 0.
In the assay with FMOC25_1, `CCN(CC)C(=S)SSC(=S)N(CC)CC` [Disulfiram] came in with a drug sensitivity score of 3.7.
On the same count and under the same terms, the figure for `C[C@]12CC[C@@H]3c4ccc(OC(=O)N(CCCl)CCCl)cc4CC[C@H]3[C@@H]1CC[C@@H]2O` [Estramustine] is 0; for `Cc1nc(C(=O)NCC(=O)O)c(O)c2ccc(Oc3ccccc3)cc12` [FG-4592] it is 0.
Still for that read-out and setting: the figure for `O=S(=O)(c1cccc2cnccc12)N1CCCNCC1` [Fasudil] is 0; for `Cn1nccc1Nc1nccc(-c2ccn([C@H](CO)c3ccc(Cl)c(F)c3)c(=O)c2)n1` [GDC-0994] it is 6; for `O=P1(NCCCl)OCCCN1CCCl` (stereo not given) [Ifosfamide] it is 0.
The same measure, in the same setting: the figure for `NC(=O)c1ccc(I)c([N+](=O)[O-])c1` [Iniparib] is 0.
`CC[C@@H](C(=O)[C@@H](C)[C@@H](O)[C@H](C)[C@@H]1O[C@@H]([C@@H](CC)C(=O)O)CC[C@@H]1C)[C@H]1O[C@]2(C=C[C@@H](O)[C@]3(CC[C@@](C)([C@H]4CC[C@](O)(CC)[C@H](C)O4)O3)O2)[C@H](C)C[C@@H]1C` [Salinomycin]: the drug sensitivity score in the assay with FMOC09 worked out at 16.4; in the assay on FMOC02_2 it was 15.4; in the assay with FMOC06, 16.6; in the assay with FMOC14 it was 23.3; with FMOC03 it was 12.5; in the assay with FMOC02_3, 1.1. In addition, the figures for the drug sensitivity score in the assay on FMOC22, in the assay with FMOC24 and in the assay with FMOC25_2 were 10.6, 26.1 and 16.5, respectively.
Consider `CC(C)n1nc(-c2ccc3oc(N)nc3c2)c2c(N)ncnc21` [Sapanisertib], for which the drug sensitivity score is 8.7 with FMOC09; 18.5 with FMOC02_2; 12.9 in the assay on FMOC06; 9.5 with FMOC14; 13.7 in the assay on FMOC03; 20.3 with FMOC02_3. Further, the drug sensitivity score was 11.7 with FMOC22, 7.7 with FMOC24 and 18.1 in the assay on FMOC25_2.
Take `Nc1nc2cc(-c3ccc4ncc(C(=O)N5CCOCC5)n4c3)ccc2o1` [Serabelisib]: the drug sensitivity score in the assay with FMOC09 is 1.3; in the assay with FMOC02_2, 6.6; with FMOC06 it was 3.5; with FMOC14, 0.1; in the assay on FMOC03, 3; in the assay on FMOC02_3, 7.2. The drug sensitivity score in the assay with FMOC22 is 2.1; in the assay with FMOC24 it was 0; in the assay on FMOC25_2 it was 6.7.
For `COc1cc2c(Nc3ccc(Cl)c(Cl)c3F)ncnc2cc1OC[C@@H]1C[C@@H]2CN(C)C[C@@H]2C1` [Tesevatinib], the drug sensitivity score with FMOC09 was found to be 16.3; in the assay on FMOC02_2, 20.6; in the assay with FMOC06, 4.4; in the assay on FMOC14, 6.5; in the assay on FMOC03, 18.9; with FMOC02_3, 21. The results for the drug sensitivity score in the assay with FMOC22, in the assay with FMOC24 and in the assay with FMOC25_2 were 2, 2.4 and 18.5, respectively.
With `Nc1cc(F)ccc1NC(=O)c1ccc(CNC(=O)/C=C/c2cccnc2)cc1` [Tucidinostat], the drug sensitivity score in the assay with FMOC09 stood at 0.8; in the assay with FMOC02_2, 6.2; in the assay with FMOC06, 8.1; with FMOC14, 7.4; in the assay with FMOC03 it was 7.7; in the assay with FMOC02_3, 5.5. Also, the drug sensitivity score in the assay with FMOC22 worked out at 4.4; with FMOC24, 9; in the assay on FMOC25_2, 4.3.
As for `C=CC(=O)N1CC/C(=C\c2ccc(F)c([N+](=O)[O-])c2)C(=O)/C(=C/c2ccc(F)c([N+](=O)[O-])c2)C1` [VLX1570], the drug sensitivity score in the assay on FMOC09 came out at 23; in the assay on FMOC02_2 it was 22.3; with FMOC06 it was 18.2; in the assay on FMOC14, 14.8; in the assay with FMOC03, 15.2; in the assay with FMOC02_3, 25. Also, the figures for the drug sensitivity score with FMOC22, in the assay with FMOC24 and in the assay with FMOC25_2 were 10.7, 15.4 and 14.7, respectively.
For `CNC(=O)c1cccc(-c2ccc3c(N4CCOC[C@@H]4C)nc(N4CCOC[C@@H]4C)nc3n2)c1` [Vistusertib], the drug sensitivity score in the assay with FMOC09 is 8.9; with FMOC02_2 it was 20.9; in the assay on FMOC06, 14.8; with FMOC14 it was 12.6; in the assay on FMOC03 it was 13.1; in the assay with FMOC02_3, 21.6. The drug sensitivity score with FMOC22 was 9.7; in the assay on FMOC24 it was 8.35; in the assay on FMOC25_2, 18.2.
On to `Cc1sc2c(c1C)C(c1ccc(Cl)cc1)=N[C@@H](CC(=O)NCCCCNC(=O)COc1cccc3c1C(=O)N(C1CCC(=O)NC1=O)C3=O)c1nnc(C)n1-2` (stereo not given in full) [dBET1], for which the drug sensitivity score in the assay with FMOC09 was 4.5; in the assay on FMOC02_2 it was 8.8; in the assay on FMOC06 it was 12.9; with FMOC14, 8.9; in the assay on FMOC03, 4.5; in the assay with FMOC02_3 it was 8.6. In addition, the results for the drug sensitivity score in the assay with FMOC22, in the assay with FMOC24 and with FMOC25_2 were 3.8, 0.2 and 0.3, respectively.
